From patent US11008340B2, “Modulators of ROR-gamma” (Vitae Pharmaceuticals, LLC, priority 2015, dated 2021)
Read-outs that look alike come from different tables or passages of the source.

Experiments:
[1] = molecular target: T1, recombinant RORγ Ligand Binding Domain (LBD) protein (Homo sapiens, UniProt P51449); assay: Radio-Ligand RORγ Binding Assay (Assay 1); conditions: radio-ligand competition, RORγ LBD, read-out: Avg ROR Bind Ki
T1 construct: 6×His; GST
T1 sequence (P51449 269-508 limits assumed): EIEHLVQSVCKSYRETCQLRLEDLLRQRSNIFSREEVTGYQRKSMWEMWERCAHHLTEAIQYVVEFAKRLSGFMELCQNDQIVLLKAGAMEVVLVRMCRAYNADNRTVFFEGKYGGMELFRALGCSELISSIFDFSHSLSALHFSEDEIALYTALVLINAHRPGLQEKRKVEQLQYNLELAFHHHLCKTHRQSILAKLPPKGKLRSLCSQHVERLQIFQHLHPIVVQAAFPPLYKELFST
Summary of the method: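 Cell-free SPA competition between compound and 25-hydroxy[26,27-^3H]-cholesterol for 6×His-GST-tagged RORγ LBD in 50 mM HEPES pH 7.4 with NaCl, MgCl2, glycerol, CHAPS, octylglucoside and DTT. Mix was shaken 20 min, held 10 min at rt, then read after poly-Lys YSi beads. IC50 came from a four-parameter fit, and Ki from radioligand KD.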

[2] = molecular target: T2, full-length RORγt in Jurkat cells (Homo sapiens, UniProt P51449); assay: RORγt 5×RORE Assay in Jurkat Cells (Assay 2); assay type: cell-based; conditions: 5×RORE luciferase reporter
T2 construct: transcriptional activity of the full-length RORγt in Jurkat cells; host or cells: Jurkat cells (ATCC TIB-152)
T2 sequence (P51449 1-497 isoform P51449-2): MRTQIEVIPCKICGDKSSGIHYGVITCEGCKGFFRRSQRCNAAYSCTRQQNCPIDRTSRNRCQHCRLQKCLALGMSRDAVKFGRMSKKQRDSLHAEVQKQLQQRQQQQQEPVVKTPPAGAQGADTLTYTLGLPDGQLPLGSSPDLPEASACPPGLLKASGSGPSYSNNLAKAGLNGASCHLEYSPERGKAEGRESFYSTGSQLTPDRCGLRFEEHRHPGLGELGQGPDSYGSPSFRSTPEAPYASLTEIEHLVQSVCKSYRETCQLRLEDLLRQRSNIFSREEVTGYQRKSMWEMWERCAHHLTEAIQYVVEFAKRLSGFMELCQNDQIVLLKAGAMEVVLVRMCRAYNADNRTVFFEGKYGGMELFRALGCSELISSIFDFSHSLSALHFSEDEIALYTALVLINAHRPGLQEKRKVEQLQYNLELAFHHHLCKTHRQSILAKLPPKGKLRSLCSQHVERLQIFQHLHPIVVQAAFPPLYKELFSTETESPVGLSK
Experimental: [formula] RORγt 5×RORE Assay in Jurkat Cells (Assay 2)
Compounds described herein were tested for RORγ inverse agonist activity in a cell-based, transcriptional activity assay. Secreted Nanoluc″ luciferase was used as a reporter for transcriptional activity of the full-length RORγt in Jurkat cells (ATCC, Cat. #TIB-152). A reporter plasmid was constructed by inserting 5 repeats of the ROR Response Element (RORE) […] (SEQ ID NO: 1) into a commercially available promoterless plasmid pNL1.3[secNluc] (Promega, Cat. #N1021) using KpnI and HindIII restriction sites. The expression plasmid for RORγt was purchased (Geneocopoeia, Cat. #EX-T6988-M02). Jurkat cells (30 million cells) were transfected with 11 μg of EX-T6988-MO2 and 26 μg of the reporter plasmid in OptiMEM® media using Lipofectamine LTX and Plus™ reagents (Life Technologies, Cat. #15338-100). After 5-6 hrs of incubation at 37° C./5% CO2, the cells were collected, resuspended in phenol-red free RPMI media containing 10% (v/v) delipidated FBS (Hyclone, Cat. #SH30855.03) and dispensed into 96-well clear bottom tissue culture plates (CoStar, Cat. #3603), at 80,000 cells per well. Tested compounds were added to the cells in the same media (final concentration of DMSO was 0.1% (v/v)), and the plates were incubated at 37° C./5% CO2 for 16-18 hrs. Luciferase activity in the conditioned supernatants was determined with NanoGlo® assay reagents (Promega, Cat. #N1130).

[3] = 25-hydroxy [26,27-3H]-cholesterol
[4] = head without unit (Tables 15, 17)
[5] = head without unit (Tables 15, 17), read-out: Avg ROR γt/5x IC50
[6] = Table 20, read-out: Avg ROR γt/5x IC5

CCS(=O)(=O)c1ccc(CNC(=O)c2ccc3c(c2)CCN(Cc2ncc(C)cn2)[C@H]3C(C)C)cc1 (single isomer, unassigned) [Hy2A-12.1]
Ki [1, 3]: 100 to 1000 nM
IC50 ([2]; read-out: Avg ROR γt/5x IC50): 100 to 1000 nM

CCS(=O)(=O)c1ccc(CNC(=O)c2ccc3c(c2)CCN(Cc2ccc(C#N)cc2)[C@H]3C(C)C)cc1 (single isomer, unassigned) [Hy2A-15.1]
Ki [1, 3]: < 100 nM
IC50 ([2]; read-out: Avg ROR γt/5x IC50): < 100 nM

CCS(=O)(=O)c1ccc(CNC(=O)c2ccc3c(c2)CCN(Cc2ccc(C#N)cn2)[C@H]3C(C)C)cc1 (single isomer, unassigned) [Hy2A-16.1]
Ki [1, 3]: < 100 nM
IC50 ([2]; read-out: Avg ROR γt/5x IC50): < 100 nM

CCS(=O)(=O)c1ccc(CNC(=O)c2ccc3c(c2)CCN(Cc2ccc(C#N)nc2)[C@H]3C(C)C)cc1 (single isomer, unassigned) [Hy2A-17.1]
Ki [1, 3]: < 100 nM
IC50 ([2]; read-out: Avg ROR γt/5x IC50): < 100 nM

CCS(=O)(=O)c1ccc(CNC(=O)c2ccc3c(c2)CCN(Cc2ccc(Cl)cc2)[C@H]3C(C)C)cc1 (single isomer, unassigned) [Hy2A-20.1]
Ki [1, 3]: < 100 nM
IC50 ([2]; read-out: Avg ROR γt/5x IC50): < 100 nM

CCS(=O)(=O)c1ccc(CNC(=O)c2ccc3c(c2)CCN(Cc2ccc(Cl)cc2)[C@@H]3C(C)C)cc1 (single isomer, unassigned) [Hy2A-20.2]
Ki [1, 3]: < 100 nM
IC50 ([2]; read-out: Avg ROR γt/5x IC50): 100 to 1000 nM

CCS(=O)(=O)c1ccc(CNC(=O)c2ccc3c(c2)C(C)(C)CN(Cc2cnc(C)cn2)[C@H]3C(C)C)cc1 (single isomer, unassigned) [Hy2A-22.1]
Ki [1, 3]: < 100 nM
IC50 ([2]; read-out: Avg ROR γt/5x IC50): 100 to 1000 nM

CCS(=O)(=O)c1ccc(CNC(=O)c2ccc3c(c2)C(C)(C)CN(Cc2ccc(C#N)cc2)C3C(C)C)cc1 (single isomer, unassigned) [Hy2A-23.1]
Ki [1, 3]: < 100 nM
IC50 ([2]; read-out: Avg ROR γt/5x IC50): < 100 nM

CCS(=O)(=O)c1ccc(CNC(=O)c2ccc3c(c2)C(C)(C)CN(Cc2ccc(C#N)cc2)C3C(C)C)cc1 (single isomer, unassigned) [Hy2A-23.2]
Ki [1, 3]: < 100 nM
IC50 ([2]; read-out: Avg ROR γt/5x IC50): 100 to 1000 nM

CCS(=O)(=O)c1ccc(CNC(=O)c2ccc3c(c2)CCN(Cc2ccc(OC(F)F)nc2)[C@H]3C(C)C)cc1 (single isomer, unassigned) [Hy2A-25.1]
Ki [1, 3]: < 100 nM
IC50 ([2]; read-out: Avg ROR γt/5x IC50): < 100 nM

CCS(=O)(=O)c1ccc(CNC(=O)c2ccc3c(c2)CCN(Cc2ncc(Br)cn2)[C@H]3C(C)C)cc1 (single isomer, unassigned) [Hy2A-26.1]
Ki [1, 3]: < 100 nM
IC50 ([2]; read-out: Avg ROR γt/5x IC50): 100 to 1000 nM

CCC1c2ccc(C(=O)NCc3ccc(S(=O)(=O)CC)cc3)cc2CCN1CC1CCC(C(F)(F)F)CC1 (single isomer, unassigned) [Hy2A-27]
Ki [1, 3]: < 100 nM
IC50 ([2]; read-out: Avg ROR γt/5x IC50): < 100 nM

CCC1c2ccc(C(=O)NC(CO)c3ccc(S(=O)(=O)CC)cc3)cc2CCN1CC1CCC(C(F)(F)F)CC1 (single isomer, unassigned) [Hy2A-28.1]
Ki [1, 3]: < 100 nM
IC50 ([2]; read-out: Avg ROR γt/5x IC50): < 100 nM

CCC1c2ccc(C(=O)NC(CO)c3ccc(S(=O)(=O)CC)cc3)cc2CCN1CC1CCC(C(F)(F)F)CC1 (single isomer, unassigned) [Hy2A-28.2]
Ki [1, 3]: < 100 nM
IC50 ([2]; read-out: Avg ROR γt/5x IC50): 100 to 1000 nM

CCS(=O)(=O)c1ccc(CNC(=O)c2cnc3c(c2)CCN(Cc2ccc(F)cc2)C3C(C)C)cc1 (single isomer, unassigned) [Hy2B-6.1]
Ki [1, 4]: < 100 nM
IC50 [2, 5]: > 1000 nM

CCS(=O)(=O)c1ccc(CNC(=O)c2cnc3c(c2)CCN(Cc2ccc(C#N)cc2)C3C(C)C)cc1 (single isomer, unassigned) [Hy2B-7.1]
Ki [1, 4]: < 100 nM
IC50 [2, 5]: 100 to 1000 nM

CCS(=O)(=O)c1ccc(CNC(=O)c2cnc3c(c2)CCN(Cc2ccc(Cl)cc2)C3C(C)C)cc1 (single isomer, unassigned) [Hy2B-8.1]
Ki [1, 4]: < 100 nM
IC50 [2, 5]: 100 to 1000 nM

CCS(=O)(=O)c1ccc(CNC(=O)c2cnc3c(c2)CCN(C[C@H]2CC[C@H](C(F)(F)F)CC2)[C@H]3C(C)C)cc1 (single isomer, unassigned) [Hy2B-9.1]
Ki [1, 4]: < 100 nM
IC50 [2, 5]: 100 to 1000 nM

CCS(=O)(=O)c1ccc(CNC(=O)c2cnc3c(c2)CCN(C[C@H]2CC[C@H](C(F)(F)F)CC2)[C@H]3C(C)C)nc1 (single isomer, unassigned) [Hy2B-10.1]
Ki [1, 4]: 100 to 1000 nM
IC50 [2, 5]: 100 to 1000 nM

CCS(=O)(=O)c1ccc(CNC(=O)c2ccc3c(c2)CN(c2ncc(F)cn2)C[C@H]3C(C)C)cc1 (single isomer, unassigned) [Hy7-1.1]
Ki [1, 3]: < 100 nM
IC50 [2, 6]: > 1000 nM

CCS(=O)(=O)c1ccc(CNC(=O)c2ccc3c(c2)CN(c2ncc(F)cn2)C[C@@H]3C(C)C)cc1 (single isomer, unassigned) [Hy7-1.2]
Ki [1, 3]: < 100 nM
IC50 [2, 6]: > 1000 nM

CCS(=O)(=O)c1ccc(CNC(=O)c2ccc3c(c2)CN(c2ncc(C#N)cn2)C[C@H]3C(C)C)cc1 (single isomer, unassigned) [Hy7-2.1]
Ki [1, 3]: < 100 nM
IC50 [2, 6]: 100 to 1000 nM

CCS(=O)(=O)c1ccc(CNC(=O)c2ccc3c(c2)CN(c2ncc(Cl)cn2)C[C@H]3C(C)C)cc1 (single isomer, unassigned) [Hy7-3.1]
Ki [1, 3]: < 100 nM
IC50 [2, 6]: 100 to 1000 nM

CCS(=O)(=O)c1ccc(CNC(=O)c2ccc3c(c2)CN(c2ncc(Cl)cn2)C[C@@H]3C(C)C)cc1 (single isomer, unassigned) [Hy7-3.2]
Ki [1, 3]: < 100 nM
IC50 [2, 6]: > 1000 nM

CCS(=O)(=O)c1ccc(CNC(=O)c2ccc3c(c2)CN(c2ncc(C4CC4)cn2)C[C@H]3C(C)C)cc1 (single isomer, unassigned) [Hy7-4.1]
Ki [1, 3]: < 100 nM
IC50 [2, 6]: 100 to 1000 nM

CCS(=O)(=O)c1ccc(CNC(=O)c2ccc3c(c2)CN(c2ncc(C4CC4)cn2)C[C@@H]3C(C)C)cc1 (single isomer, unassigned) [Hy7-4.2]
Ki [1, 3]: < 100 nM
IC50 [2, 6]: > 1000 nM

CCOc1cnc(N2Cc3cc(C(=O)NCc4ccc(S(=O)(=O)CC)cc4)ccc3[C@H](C(C)C)C2)nc1 (single isomer, unassigned) [Hy7-5.1]
Ki [1, 3]: < 100 nM
IC50 [2, 6]: 100 to 1000 nM

CC[C@@H]1CN(c2ncc(Cl)cn2)Cc2cc(C(=O)N[C@@H](CO)c3ccc(S(=O)(=O)CC)cc3)ccc21 (single isomer, unassigned) [Hy7-6.1]
Ki [1, 3]: < 100 nM
IC50 [2, 6]: > 1000 nM

CC[C@H]1CN(c2ncc(Cl)cn2)Cc2cc(C(=O)N[C@@H](CO)c3ccc(S(=O)(=O)CC)cc3)ccc21 (single isomer, unassigned) [Hy7-6.2]
Ki [1, 3]: < 100 nM
IC50 [2, 6]: > 1000 nM

CC[C@@H]1CN(c2ccc(C(F)(F)F)cc2)Cc2cc(C(=O)NCc3ccc(S(=O)(=O)CC)cc3)ccc21 (single isomer, unassigned) [Hy7-7.1]
Ki [1, 3]: < 100 nM
IC50 [2, 6]: < 100 nM

CC[C@H]1CN(c2ccc(C(F)(F)F)cc2)Cc2cc(C(=O)NCc3ccc(S(=O)(=O)CC)cc3)ccc21 (single isomer, unassigned) [Hy7-7.2]
Ki [1, 3]: < 100 nM
IC50 [2, 6]: 100 to 1000 nM

CC[C@@H]1CN(c2ccc(C(F)(F)F)cn2)Cc2cc(C(=O)NCc3ccc(S(=O)(=O)CC)cc3)ccc21 (single isomer, unassigned) [Hy7-8.1]
Ki [1, 3]: < 100 nM
IC50 [2, 6]: < 100 nM

CC[C@H]1CN(c2ccc(C(F)(F)F)cn2)Cc2cc(C(=O)NCc3ccc(S(=O)(=O)CC)cc3)ccc21 (single isomer, unassigned) [Hy7-8.2]
Ki [1, 3]: < 100 nM
IC50 [2, 6]: 100 to 1000 nM

CC[C@@H]1CN(c2ncc(C(F)(F)F)cn2)Cc2cc(C(=O)NCc3ccc(S(=O)(=O)CC)cc3)ccc21 (single isomer, unassigned) [Hy7-9.1]
Ki [1, 3]: < 100 nM
IC50 [2, 6]: < 100 nM
